Laboratory results published in article PMC8236048, “Pharmaceutical design of a delivery system for the bacteriocin lacticin 3147” (Drug Delivery and Translational Research, 2021).

Assays:
trypsin = test: Enzyme degradation of lacticin 3147 by trypsin (activity, MALDI-TOF); format: in vitro ADME; settings: 3 h incubation, n = 3
Description: (§1) Lacticin 3147 production was confirmed by matrix-assisted laser desorption ionization-time of flight (MALDI-TOF) mass spectrometry using sinapinic acid as the matrix. About 0.7 μl of the matrix solution (sinapinic acid, 4 mg/ml in 50% acetone/50% methanol) was added to the target plate and left to evaporate (30 s) at ambient conditions. Individual peptides (Ltnα or Ltnβ) were resuspended in 70% IPA and mixed at a 1:1 volume ratio with a 10-mg/ml stock solution of sinapinic acid in 60% ACN with 0.1% TFA. About 0.3 μl of this peptide-matrix solution was then added to the matrix layer previously applied to the plate and evaporated at ambient conditions. The plate was inserted into a MALDI-TOF Ultraflex mass spectrometer (Bruker) and analysed using reflectron positive 700–3500 Da mode. 100 shots were fired at 88% intensity. This method was also used for the analyses of samples from the enzyme degradation studies.
Trypsin and α-chymotrypsin stock solutions (50 mg/ml) were resuspended in water. Pepsin (50 mg/ml) was resuspended in 0.02 M HCL. […] The effect of the proteases pepsin, α-chymotrypsin, and trypsin on the lacticin 3147 peptides was determined by MALDI-TOF mass spectrometry. […] After 3 h, 1 µl was removed from each sample and it was analysed by MALDI-TOF mass spectrometry. […]

α-chymotrypsin = target: T1, α-chymotrypsin (Bos taurus, UniProt P00766); test: Enzyme degradation of lacticin 3147 by α-chymotrypsin (activity, MALDI-TOF); format: in vitro ADME; settings: 3 h incubation, n = 3
T1 construct: purchased Sigma-Aldrich Ireland Ltd
Description: as §1
(§2) Trypsin and α-chymotrypsin stock solutions (50 mg/ml) were resuspended in water. Pepsin (50 mg/ml) was resuspended in 0.02 M HCL. About 1 mg/ml individual solutions of Ltnα and Ltnβ in 70% IPA were filtered and diluted (1 in 20) in sterile PBS to give a final peptide concentration of 50 µg/ml. After this, 5.3 µl Ltnα and 4.6 µl Ltnβ were added to the same well of a 96-well plate. The pH of the lacticin 3147-pepsin solution was 2.29. Control wells consisting of Ltnα and Ltnβ together, Ltnα alone, and Ltnβ alone with no enzyme were included. The 96-well plate was incubated for 3 h at 37 °C to allow the enzyme to act. After incubation, the wells were filled to 50 μl with PBS and 150 μl of diluted bacterial cell culture (L. monocytogenes at an OD of 0.1) was added to each well. The final peptide concentration of 400 nM (1.31 µg/ml Ltnα, 1.14 µg/ml Ltnβ) was obtained when the wells were filled to 200 µl. […] The effect of the proteases pepsin, α-chymotrypsin, and trypsin on the lacticin 3147 peptides was determined by MALDI-TOF mass spectrometry. […] After 3 h, 1 µl was removed from each sample and it was analysed by MALDI-TOF mass spectrometry. […]

pepsin = target: T2, pepsin (Sus scrofa, UniProt P00791); test: Enzyme degradation of lacticin 3147 by pepsin (activity, MALDI-TOF, RP-HPLC); format: in vitro ADME; settings: 3 h; for intact peptide after incubation with pepsin (MALDI-TOF): 25 mg/ml pepsin, 13.38 µg/ml Ltnα, 11.86 µg/ml Ltnβ, pH 2.29, n = 3; for concentration with versus without pepsin (RP-HPLC): 60 mg/ml pepsin, 62.5 µg/ml peptide, 37 °C, RP-HPLC UV 214 nm
T2 construct: purchased Sigma-Aldrich Ireland Ltd
Description: as §1
All lacticin 3147 samples were filtered through a 0.2-µm PES filter before analysis by RP-HPLC using an Agilent 1200 Infinity Series HPLC (Agilent Technologies, USA). The HPLC separations were carried out on an Aeris 3.6 µm Peptide 100 Å 250 × 4.6 mm, liquid chromatography column with a flow rate of 0.8 ml/min, and with 0.1% trifluoroacetic acid (TFA) in water as aqueous phase-A and 0.1% TFA in acetonitrile (ACN) as organic phase-B. The total run time was 51 min. The mobile phase started with 30:70 A:B for 3 min and change linearly to 35:65 A:B over 30 min. The organic phase was then adjusted to 100% within 1 min and continued to flow for 5 min. After this, the mobile phase returned to the initial ratio to stabilize the chromatographic system. The detector was set at 214 nm. The peak area (mAU) was plotted against the concentration (1.56–500 µg/ml) to make a calibration curve. The coefficients of determination (R^2 values) were 0.9963 and 0.9983 for Ltnα and Ltnβ respectively. This method was subsequently used for quantitative analysis of Ltnα and Ltnβ.
as §2, with “µl. Blanks were set up in triplicate with media only and PBS only. The three control wells were also set up with bacterial culture and each enzyme only.” for “µl.”
Pepsin’s effect on lacticin 3147 was also investigated by RP-HPLC. […] After incubation, aliquots were taken, filtered, and analysed by RP-HPLC to determine if pepsin degrades Ltnα or Ltnβ to any extent.

C. difficile = settings: treatment failures of C. difficile infection after use of antibiotics; cited from earlier work
Source text: Approximately 223,900 C. difficile infections and 12,800 resulting deaths were reported in the USA in 2017 [17]. Treatment failures and recurrences of infection after the use of antibiotics are increasingly common, with a 2–38% failure rate for vancomycin and 8–50% for metronidazole. A more virulent strain of C. d ...

T2 sequence (P00791 60-385): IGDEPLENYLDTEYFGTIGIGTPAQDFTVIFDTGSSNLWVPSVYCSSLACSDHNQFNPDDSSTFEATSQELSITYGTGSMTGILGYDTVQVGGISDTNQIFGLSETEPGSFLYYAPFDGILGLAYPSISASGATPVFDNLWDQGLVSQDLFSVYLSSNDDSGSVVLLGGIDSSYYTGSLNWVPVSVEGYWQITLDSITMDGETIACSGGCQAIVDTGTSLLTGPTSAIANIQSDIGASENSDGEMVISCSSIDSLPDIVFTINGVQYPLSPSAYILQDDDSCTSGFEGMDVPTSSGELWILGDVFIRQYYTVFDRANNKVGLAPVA

CC=C(NC(=O)C(=O)CC)C(=O)N1CCC[C@H]1C(=O)N[C@@H](C)C(=O)NC(=CC)C(=O)N1CCC[C@H]1C(=O)N[C@@H](C)C(=O)N[C@H](C(=O)N[C@H](C)C(=O)N[C@H](C(=O)N[C@@H](CC(C)C)C(=O)N[C@H](C)C(=O)N[C@@H](C)C(=O)N[C@@H](Cc1ccc(O)cc1)C(=O)N[C@H](C(=O)NC1CSCC(C(=O)N2CCC[C@H]2C(=O)NC2C(=O)N[C@@H]([C@@H](C)O)C(=O)N[C@@H](CCCCN)C(=O)NC(C(=O)NC3C(=O)N[C@@H](CCCNC(=N)N)C(=O)N[C@@H](C)C(=O)NC(C(=O)O)CSC3C)CSC2C)NC(=O)[C@H]([C@@H](C)O)NC(=O)[C@H](CC(N)=O)NC(=O)[C@H]([C@@H](C)O)NC1=O)[C@@H](C)CC)[C@@H](C)CC)[C@@H](C)CC (stereo partly shown) [Ltnβ]
intact peptide after incubation with trypsin (MALDI-TOF) (trypsin): no masses corresponding to intact
intact peptide after incubation with α-chymotrypsin (MALDI-TOF) (α-chymotrypsin): no masses corresponding to intact
intact peptide after incubation with pepsin (MALDI-TOF) (pepsin): Masses corresponding to Ltnα and Ltnβ can be seen
concentration with versus without pepsin (RP-HPLC) (pepsin): not significantly different

Cc1ncc([N+](=O)[O-])n1CCO [metronidazole]
failure rate (C. difficile): 8–50%

CC=C(NC(=O)C1CSCC(N)C(=O)N1)C(=O)N[C@@H](CC(N)=O)C(=O)NC(=CC)C(=O)N[C@@H](Cc1ccccc1)C(=O)N[C@H](C)C(=O)N[C@@H](CC(C)C)C(=O)NC1CSCC(C(=O)NC2C(=O)N[C@@H](CC(C)C)C(=O)NC3C(=O)N[C@@H](Cc4c[nH]cn4)C(=O)N[C@@H](CCC(=O)O)C(=O)NC(CSC2C)C(=O)N[C@@H](CCSC)C(=O)N[C@@H](C)C(=O)N[C@@H](Cc2c[nH]c4ccccc24)C(=O)NC(C(=O)N[C@@H](CCCCN)C(=O)O)CSC3C)NC(=O)[C@H](Cc2c[nH]c3ccccc23)NC(=O)[C@H](C)NC(=O)CNC(=O)[C@H](CC(N)=O)NC(=O)[C@H](CC(N)=O)NC(=O)CNC(=O)[C@H](Cc2c[nH]c3ccccc23)NC(=O)[C@H](Cc2ccc(O)cc2)NC(=O)[C@H](CC(=O)O)NC1=O (stereo partly shown) [Ltnα]
intact peptide after incubation with trypsin (MALDI-TOF) (trypsin): no masses corresponding to intact
intact peptide after incubation with α-chymotrypsin (MALDI-TOF) (α-chymotrypsin): no masses corresponding to intact
intact peptide after incubation with pepsin (MALDI-TOF) (pepsin): Masses corresponding to Ltnα and Ltnβ can be seen
concentration with versus without pepsin (RP-HPLC) (pepsin): not significantly different

CN[C@H](CC(C)C)C(=O)N[C@H]1C(=O)N[C@@H](CC(N)=O)C(=O)N[C@H]2C(=O)N[C@H]3C(=O)N[C@H](C(=O)N[C@H](C(=O)O)c4cc(O)cc(O)c4-c4cc3ccc4O)[C@H](O)c3ccc(c(Cl)c3)Oc3cc2cc(c3O[C@@H]2O[C@H](CO)[C@@H](O)[C@H](O)[C@H]2O[C@H]2C[C@](C)(N)[C@H](O)[C@H](C)O2)Oc2ccc(cc2Cl)[C@H]1O [vancomycin]
failure rate (C. difficile): 2–38%
